Assay results reported in patent US6093720A, “Trans apovincaminic acid ester derivatives” (Richter Gedeon Vegyeszeti GmbH, priority 1995, dated 2000).
“And” between values parts separate entries of the source, which are not always exact repeats. Equal entries are not always repeated. Structures can show the parent of a compound that is named as a salt.

Tests used:
[1] = tested on: NADPH-Induced Lipid Peroxidation in Brain Microsomes; assay: NADPH-induced (enzymatic) lipid peroxidation in brain microsomes (AEI); assay type: biochemical, rat (male Hannover-Wistar); settings: for IC50: NADPH-induced lipid peroxidation, rat brain microsomes, 37° C., 20 minutes, pH 6.8; for inhibition of NADPH-induced lipid peroxidation relative to silymarin (times as strongly): compared with silymarin; for antioxidant effect in NADPH-induced lipid peroxidation, in words: comparison with reference compounds
Description: Effect on the NADPH-Induced Lipid Peroxidation in Brain Microsomes
Male Hannover-Wistar rats with a body weight of 150-250 g were used for the preparation of microsomes. After decapitation, the whole brain was removed and homogenized in a 10-fold volume of ice-cold 0.25 M saccharose solution. The homogenate was centrifuged in a Hitachi CR 26H equipment at 15000 g at 4° C. for 10 minutes, then the supernatant was collected and centrifuged in a Hitachi SCP 85H apparatus at 78000 g at 4° C. for 60 minutes. After suspending the precipitate in 0.15 M KCl solution, the protein content of the obtained solution was determined and then adjusted to 10 mg/ml concentration. The microsome thus obtained was frozen in a dry ice-acetone mixture and stored at -70° C. until use. The components of the incubation mixture were: 50 mM TRIS-HCl (pH 6.8), 0.2 mM FeCl3, 1 mM KH2 PO4, 0.5 mM ADP, 0.2 mg of microsomes as well as the compound to be tested. The incubation was carried out with a final volume of 1 ml and with an incubation time of 20 minutes at a temperature of 37° C. The lipid peroxidation was induced by adding 0.4 mM NADPH.
The formation of malondialdehyde was determined by using thiobarbituric acid. After stopping the reaction, 1 ml of 1% thiobarbituric acid solution each was weighed to the samples, which were then placed in a water bath of about 100° C. for 10 minutes. Subsequently, the samples were centrifuged at 2000 g in a Janetzki K70 apparatus at 4° C. for 10 minutes. The absorbance values of the colored supernatant were measured at 535 nm in a Hitachi 150-20 spectrophotometer. Malondialdehyde bis(diethylacetal) was used as reference compound.

[2] = tested on: Fe^2+ -Induced Lipid Peroxidation in Brain Homogenate; assay: Fe^2+-induced (non-enzymatic) lipid peroxidation in brain homogenate (ANI); assay type: biochemical, rat (Hannover-Wistar); settings: for IC50: Fe^2+-induced lipid peroxidation, rat brain homogenate, 37° C., 20 minutes, pH 7.4; for antioxidant activity in Fe^2+-induced lipid peroxidation, in words: comparison with idebenone, DL-α-tocopherol or silymarin
Description: Effect on the Fe^2+ -Induced Lipid Peroxidation in Brain Homogenate
After decapitating Hannover-Wistar rats weighing 150-220 g each, the whole brain was homogenized in 9 volumes of ice-cold Krebs-Ringer's buffer containing 15 mM HEPES, (4-(2-hydroxyethyl)-1-piperazinylethanesulfonic acid) (pH 7.4), 140 mM NaCl7 3.6 mM KCl, 1.5 mM CaCl2, 0.7 mM MgCl2, 1.4 mM KH2 PO4 and 10 glucose. Then the protein content of the solution was determined and adjusted to 10 mg/ml concentration.
After adding the inhibitory agent to be tested in a volume of 5 μl to 200 μl of the homogenate, the incubation mixture was incubated at 37° C. for 20 minutes. The Fe^2+ -induced lipid peroxidation was accomplished by adding 5 μl of 8 mM Fe2 (NH4)2 (SO4)2 solution. After passing of the incubation time, the reaction was stopped by adding 1 ml of a stopping solution containing 0.8 M HCl and 12.5% trichloroacetic acid, then the samples were centrifuged at 2000 g in a Janetzki K70 apparatus at 4° C. for 10 minutes.
To a 0.5 ml portion of the supernatant, 1 ml of 1% thiobarbituric acid solution was added, then the samples were placed in a water bath of 100° C. for 20 minutes. The color intensity developed was determined at 535 nm with a Hitachi 150-20 spectrophotometer by using malondialdehyde bis(diethylacetal) as reference compound.
ANI: non-enzymatically (Fe^2+) induced lipid peroxidation test

[3] = Antiischemic effect on bilateral (carotid) artery ligation model, mortality; assay type: in vivo, mice; settings: for mortality at 2 mg/kg / ED50: Mus musculus, ip; for mortality at 2 mg/kg: 24 h, 30 minutes before 5-minute bilateral carotid ligation, control mortality 70%; for mortality at 2 mg/kg / antiischemic activity, in words: 2 mg/kg i.p.; for ED50: dose diminishing the mortality by 50% in comparison to the untreated control group; for antiischemic activity, in words: bilateral artery ligation, mice
Description: 1. Antiischemic Effect (On Bilateral Artery Ligation Model)
N. Himori et al.: Cerebral ischemia model with conscious mice involvement of NMDA receptor activation and derangement of learning and memory ability [J. Pharmacol. Meth. 23, 311-327 (1990)].
Carotid arteries of mice (weighing 30 to 32 g each) were exposed bilaterally under anaesthesia by 450 mg/kg of intraperitoneal (i.p.) chloral hydrate. The sympathetic and vagal nerves were separated and a loose ligation was bilaterally placed below the carotid arteries. Both ends of the ligation were led out on the back, behind the ears. Next day, in conscious state both ends of the ligation were pulled resulting in the stopping of blood supply through the carotid arteries. This was maintained for 5 minutes, then released to provide the reperfusion. The number of animals died during the 5-minute period and the following 24 hours were registered. The calculation of significance was performed by the chi^2 test. The pre-treatment with the compound was carried out intraperitoneally (i.p.) 30 minutes before the ligation.
The transient dramatic decrease in the cerebral blood supply, then the starting of reperfusion after stopping the ligation leads to the formation of extremely toxic oxygen free radicals (superoxide radical, hydrogen peroxide). […] [ED50 is the dose (as mg/kg) diminishing the mortality by 50% in comparison to the untreated is control group].

[4] = Diazepam-induced anterograde amnesia (passive avoidance); assay type: in vivo, NMRI mice; settings: for Inhibition of the diazepam-induced amnesia %: 1 hour before learning, diazepam 3 mg/kg i.p.; for antiamnesic activity, in words: diazepam-induced anterograde amnesia, 0.1 and 10 mg/kg p.o.
Description: 2. Diazepam-Induced Anterograde Amnesia C. L. Broekkamp et al.: The comparative effects of benzodiazepines, progabide and PK 9084 on acquisition of passive avoidance in mice [Psychopharmacology (Berlin) 83, 122-125 (1984)]. The memory test was accomplished on NMRI mice weighing 25 to 28 g each by using the passive avoidance, a method based on the genetically determined nyctophilic behavior of rodents. During the learning period, the pre-selected animals (mice entering the dark space from the illuminated space within 30 seconds) were placed in an illuminated space. After entering the dark space, the animal received an electric shock (1 mA for […]) onto its planta within 30 seconds, then the time until entry to the dark space (latency period) was registered. After 24 hours, the animals were placed again in the illuminated space and the time until crossing over to the dark space (retention time=T with a time limit of 300 seconds) was measured. For inducing an anterograde amnesia, the animals were treated intraperitoneally with 3 mg/kg of diazepam 30 minutes before learning. The compounds were administered orally in 0.1 or 10 mg/kg doses, respectively 1 hour before learning. [formula]

Cc1c(C)c2c(c(C)c1O)CCC(C)(CCCC(C)CCCC(C)CCCC(C)C)O2 (racemic) [Vitamin E, 2,5,7,8-tetramethyl-2-(4',8',12'-trimethyltridecyl)-6-chromanol, reference compound]
IC50 [1]: 406 µM | IC50 [2]: 12.1 µM | mortality at 2 mg/kg [3]: 70% | ED50 [3]: 17.8 mg/kg | antiischemic activity, in words [3]: less active in the same dose

CC[C@@]12C=C(C(=O)OCCO)n3c4c(c5ccccc53)CCN(CCC1)[C@@H]42 [Compound 1010885, (-)-trans apovincaminic acid 2-hydroxyethyl ester(3β,16α)]
IC50 [1]: 9.7 µM | inhibition of NADPH-induced lipid peroxidation relative to silymarin (times as strongly) [1]: about 20 times | IC50 [2]: 15.5 µM | antioxidant activity in Fe^2+-induced lipid peroxidation, in words [2]: more strongly than idebenone | mortality at 2 mg/kg [3]: 60% | Inhibition of the diazepam-induced amnesia % ([4]; 0.1 mg/kg p.o.): 74% | Inhibition of the diazepam-induced amnesia % ([4]; 10.0 mg/kg p.o.): 65%

CC[C@]12C=C(C(=O)OCCOC(C)=O)n3c4c(c5ccccc53)CCN(CCC1)[C@H]42 [Compound 1010886, (+)-trans apovincaminic acid 2-(acetoxy)ethyl ester(3α,16β)hydrochloride]
IC50 [1]: 7.6 µM and < 10 µM | inhibition of NADPH-induced lipid peroxidation relative to silymarin (times as strongly) [1]: about 20 times | IC50 [2]: 7.7 µM and < 10 µM | antioxidant activity in Fe^2+-induced lipid peroxidation, in words [2]: about twice as active as idebenone or DL-α-tocopherol | Inhibition of the diazepam-induced amnesia % ([4]; 0.1 mg/kg p.o.): 72% | Inhibition of the diazepam-induced amnesia % ([4]; 10.0 mg/kg p.o.): 44% | antiamnesic activity, in words [4]: particularly effective

CC[C@]12C=C(C(=O)OCCO)n3c4c(c5ccccc53)CCN(CCC1)[C@H]42 [Compound 1010887, (+)-trans apovincaminic acid 2-hydroxyethyl ester(3α,16β)]
IC50 [1]: 12.6 µM | inhibition of NADPH-induced lipid peroxidation relative to silymarin (times as strongly) [1]: about 20 times | IC50 [2]: 7.2 µM | antioxidant activity in Fe^2+-induced lipid peroxidation, in words [2]: about twice as active as idebenone or DL-α-tocopherol | Inhibition of the diazepam-induced amnesia % ([4]; 0.1 mg/kg p.o.): 50% | Inhibition of the diazepam-induced amnesia % ([4]; 10.0 mg/kg p.o.): 56% | antiamnesic activity, in words [4]: particularly effective

CC[C@@]12C=C(C(=O)OCCOC(=O)c3ccccc3)n3c4c(c5ccccc53)CCN(CCC1)[C@@H]42 [Compound 1010960, (-)-trans apovincaminic acid 2-(benzoyloxy)ethyl ester(3β,16α)hydrochloride]
IC50 [1]: 7.4 µM and < 10 µM | inhibition of NADPH-induced lipid peroxidation relative to silymarin (times as strongly) [1]: about 20 times | IC50 [2]: 5.7 µM and < 10 µM | antioxidant activity in Fe^2+-induced lipid peroxidation, in words [2]: about twice as active as idebenone or DL-α-tocopherol | mortality at 2 mg/kg [3]: 10 to 30% | Inhibition of the diazepam-induced amnesia % ([4]; 0.1 mg/kg p.o.): 0% | Inhibition of the diazepam-induced amnesia % ([4]; 10.0 mg/kg p.o.): 0%

CC[C@@]12C=C(C(=O)OCCOC(=O)c3ccc(Cl)cc3)n3c4c(c5ccccc53)CCN(CCC1)[C@@H]42 [Compound 1010961, (-)-trans apovincaminic acid 2-(4-chlorobenzoyloxy)ethyl ester(3β,16α)methanesulfonate]
IC50 [1]: 5.9 µM and < 10 µM | antioxidant effect in NADPH-induced lipid peroxidation, in words [1]: comparable to that of idebenone | IC50 [2]: 5.3 µM and < 10 µM | antioxidant activity in Fe^2+-induced lipid peroxidation, in words [2]: about twice as active as idebenone or DL-α-tocopherol | mortality at 2 mg/kg [3]: 60% | Inhibition of the diazepam-induced amnesia % ([4]; 0.1 mg/kg p.o.): 3% | Inhibition of the diazepam-induced amnesia % ([4]; 10.0 mg/kg p.o.): 15%

CCC(=O)OCCOC(=O)C1=C[C@]2(CC)CCCN3CCc4c(n1c1ccccc41)[C@H]32 [Compound 1010962, (-)-trans apovincaminic acid 2-(propionyloxyethyl)ester(3β,16α)hydrochloride]
IC50 [1]: 7.5 µM and < 10 µM | inhibition of NADPH-induced lipid peroxidation relative to silymarin (times as strongly) [1]: about 20 times | IC50 [2]: 5.7 µM and < 10 µM | antioxidant activity in Fe^2+-induced lipid peroxidation, in words [2]: about twice as active as idebenone or DL-α-tocopherol | mortality at 2 mg/kg [3]: 40% | Inhibition of the diazepam-induced amnesia % ([4]; 0.1 mg/kg p.o.): 16% | Inhibition of the diazepam-induced amnesia % ([4]; 10.0 mg/kg p.o.): 4%

CC[C@@]12C=C(C(=O)OCCOC(=O)c3cc(OC)c(OC)c(OC)c3)n3c4c(c5ccccc53)CCN(CCC1)[C@@H]42 [Compound 1011005, (-)-trans apovincaminic acid 2-(3,4,5-trimethoxybenzoyloxy)-ethyl ester(3β,16α)hydrochloride]
IC50 [1]: 10.3 µM | inhibition of NADPH-induced lipid peroxidation relative to silymarin (times as strongly) [1]: about 20 times | IC50 [2]: 11.9 µM | mortality at 2 mg/kg [3]: 70%

CC[C@]12C=C(C(=O)OCCOC(=O)c3ccccc3)n3c4c(c5ccccc53)CCN(CCC1)[C@H]42 [Compound 1011036, (-)-trans apovincaminic acid 2-(benzoyloxy)ethyl ester(3α,16β)hydrochloride]
IC50 [1]: 7.7 µM and < 10 µM | inhibition of NADPH-induced lipid peroxidation relative to silymarin (times as strongly) [1]: about 20 times | IC50 [2]: 9.3 µM and < 10 µM | antioxidant activity in Fe^2+-induced lipid peroxidation, in words [2]: about twice as active as idebenone or DL-α-tocopherol | mortality at 2 mg/kg [3]: 50% | Inhibition of the diazepam-induced amnesia % ([4]; 0.1 mg/kg p.o.): 23% | Inhibition of the diazepam-induced amnesia % ([4]; 10.0 mg/kg p.o.): 16%

CC[C@]12C=C(C(=O)OCCOC(=O)c3ccc(Cl)cc3)n3c4c(c5ccccc53)CCN(CCC1)[C@H]42 [Compound 1011037, (+)-trans apovincaminic acid 2-(4-chloro-benzoyloxy)-ethyl ester(3α,16β)methanesulfonate]
IC50 [1]: 3.2 µM | antioxidant effect in NADPH-induced lipid peroxidation, in words [1]: comparable to that of idebenone | IC50 [2]: 11.4 µM | mortality at 2 mg/kg [3]: 50%

CC[C@]12C=C(C(=O)OCCOC(=O)c3cc(OC)c(OC)c(OC)c3)n3c4c(c5ccccc53)CCN(CCC1)[C@H]42 [Compound 1011047, (+)-trans apovincaminic acid 2-(3,4,5-trimethoxybenzoyloxy)ethyl ester(3α,16β)]
IC50 [1]: 5.9 µM | antioxidant effect in NADPH-induced lipid peroxidation, in words [1]: comparable to that of idebenone | IC50 [2]: 16.1 µM | antioxidant activity in Fe^2+-induced lipid peroxidation, in words [2]: more strongly than idebenone | mortality at 2 mg/kg [3]: 50%

CC[C@@]12C=C(C(=O)OCCOC(=O)c3cccs3)n3c4c(c5ccccc53)CCN(CCC1)[C@@H]42 [Compound 2705283, (-)-trans apovincaminic acid 2-(2-thiophenoyloxi)ethyl ester(3β,16α)monohydrochloride]
IC50 [1]: 11.2 µM | inhibition of NADPH-induced lipid peroxidation relative to silymarin (times as strongly) [1]: about 20 times | IC50 [2]: 6.8 µM | antioxidant activity in Fe^2+-induced lipid peroxidation, in words [2]: about twice as active as idebenone or DL-α-tocopherol

CC[C@@]12C=C(C(=O)OCCOC(=O)c3ccc([N+](=O)[O-])cc3)n3c4c(c5ccccc53)CCN(CCC1)[C@@H]42 [Compound 2705284, (-)-trans apovincaminic acid 2-(4-nitrobenzoyloxy)ethyl ester(3β,16α)]
IC50 [1]: 20.4 µM | IC50 [2]: 6.8 µM | antioxidant activity in Fe^2+-induced lipid peroxidation, in words [2]: about twice as active as idebenone or DL-α-tocopherol

COC1=C(OC)C(=O)C(CCCCCCCCCCO)=C(C)C1=O [Idebenone, 6-(10-hydroxydecyl)-2,3-dimethoxy-5-methyl-1,4-benzoquinone, reference compound]
IC50 [1]: 1.2 µM | IC50 [2]: 18.9 µM | mortality at 2 mg/kg [3]: 40% | ED50 [3]: 4.5 mg/kg | antiischemic activity, in words [3]: less active in the same dose

CCOC(=O)C1=C[C@]2(CC)CCCN3CCc4c(n1c1ccccc41)[C@@H]32 [Vinpocetine, reference compound]
Inhibition of the diazepam-induced amnesia % ([4]; 0.1 mg/kg p.o.): 0% | Inhibition of the diazepam-induced amnesia % ([4]; 10.0 mg/kg p.o.): 123%

(-)-Bis-trans apovincaminic acid ethyleneglycol ester(3β,16β)dihydrochloride [Compound 1011008]
IC50 [1]: 6 µM | antioxidant effect in NADPH-induced lipid peroxidation, in words [1]: comparable to that of idebenone | IC50 [2]: 21.2 µM | antioxidant activity in Fe^2+-induced lipid peroxidation, in words [2]: exceeded that of silymarin
